Measured values taken from publication PMC10584170, “Machine learning-based phenotypic imaging to characterise the targetable biology of Plasmodium falciparum male gametocytes for the development of transmission-blocking antimalarials” (PLOS Pathogens, 2023).
Read-outs that look alike come from different tables or passages of the source.

Columns and labels:
[1] = test system: P. falciparum female gametocytes; test: P. falciparum Dual Gamete Formation Assay (PfDGFA), female readout (Pfs25-positive female gametes); assay type: cell-based, Plasmodium falciparum NF54; details: for IC50: PfDGFA, 24 h incubation with gametocytes before induction, female gamete readout, read-out: Female IC50
Experimental: (§1) P. falciparum NF54 (originally isolated from an imported malaria case in the Netherlands in the 1980s; BEI Resources, cat. No. MRA-1000) strain asexual parasites were maintained between 0.3–5% parasitaemia by regular passage in complete culture medium (RPMI supplemented with 25 mM HEPES, 50 μg ml^−1 hypoxanthine, 4.8 g l^−1 NaHCO3, 2mM L-glutamine, 5% pooled type AB serum, 0.5% Albumax II (Gibco)) at 4% haematocrit in washed whole blood (National Blood and Transfusion Service or Centro de Transfusiones de la Comunidad de Madrid CTCM) under a 1% O2/3% CO2/96% N2 environment. Gametocytes were induced by seeding culture flasks at 2% parasitaemia/4% haematocrit and subjecting them to daily medium changes for 14 days whilst maintaining a temperature of 37°C at all times. On Day 14, the maturity of gametocytes was assessed by quantifying male gametogenesis (exflagellation). A 20 μl sample of gametocyte culture was mixed with equal volume of ookinete medium (complete culture medium supplemented with 0.1 μM xanthurenic acid) at room temperature and transferred to a haemocytometer. After 20 min at room temperature, exflagellation was accurately quantified as described in Delves et al. 2016 [17].
(§2) The Pf DGFA was performed as described in Delves et al. 2016 [17]. […] Plates were then incubated for 24 h at 37°C in a humidified box under a 1% O2/3% CO2/96% N2 gas mix. Gametogenesis was triggered by addition of 10 μl per well of ookinete medium + 0.27 μg ml^-1 Cy3-labelled anti-Pfs25 antibody. Plates were incubated on a metal block at 4°C for 4 min to ensure even cooling, then 28°C for a further 4 min. Exflagellation was recorded by capturing 10 frames over 1 s under brightfield illumination using a x4 objective with a 1.5x zoom (effectively x6) attached to an automated Nikon Ti fluorescence microscope. After recording exflagellation, plates were incubated for a further 24 h in the dark at 28°C to ensure maximal expression of Pfs25 by female gametes. The plates were then returned to the microscope and female gametes imaged at x6 using fluorescence microscopy.
(§3) Exflagellation centres and female gametes were quantified using custom image analysis pipelines developed within ICY Bioimage Analysis (https://icy.bioimageanalysis.org/).

[2] = test system: P. falciparum male gametocytes; test: P. falciparum Dual Gamete Formation Assay (PfDGFA), male readout (exflagellation); assay type: cell-based, Plasmodium falciparum NF54; details: for % inhibition male (individual replicates) R3: replicate R3; for IC50: PfDGFA, 24 h incubation with gametocytes before induction, exflagellation readout, read-out: Male IC50
Experimental: as §1, §2, §3

[3] = 2µM, 24h preincubation with gametocytes prior to induction of gametogenesis, average of replicates
[4] = 2µM, 24h preincubation with gametocytes prior to induction of gametogenesis, replicate R1
[5] = 2µM, 24h preincubation with gametocytes prior to induction of gametogenesis, replicate R3
[6] = 2µM, 24h preincubation with gametocytes prior to induction of gametogenesis, replicate R4
[7] = 2µM, 24h preincubation with gametocytes prior to induction of gametogenesis
[8] = PfDGFA at 2µM, 24h preincubation with gametocytes prior to induction of gametogenesis, replicate R1
[9] = PfDGFA at 2µM, 24h preincubation with gametocytes prior to induction of gametogenesis, replicate R3
[10] = PfDGFA at 2µM, 24h preincubation with gametocytes prior to induction of gametogenesis, replicate R4
[11] = PfDGFA at 2µM, 24h preincubation, average of replicates
[12] = PfDGFA at 2µM, 24h preincubation with gametocytes prior to induction of gametogenesis
[13] = number of replicates with >50% inhibition in the female readout, 2µM
[14] = number of replicates with >50% inhibition in the male readout, 2µM
[15] = PfDGFA at 2µM, 24h preincubation with gametocytes, average of replicates
[16] = PfDGFA at 2µM, 24h preincubation with gametocytes, replicate R1
[17] = PfDGFA at 2µM, 24h preincubation with gametocytes, replicate R4
[18] = 2µM, 24h preincubation with gametocytes, average of replicates
[19] = 2µM, 24h preincubation with gametocytes, replicate R1
[20] = 2µM, 24h preincubation with gametocytes, replicate R4

CC1(C)N=C(N)N=C(N)N1c1ccc(Br)cc1.Cl [TCMDC-123959]
Average inhibition female (%) [1, 3]: 18.2% | % inhibition female (individual replicates) R1 [1, 4]: 15.6% | % inhibition female (individual replicates) R3 [1, 5]: 12.6% | % inhibition female (individual replicates) R4 [1, 6]: 26.1% | HitlevelF ([1]; 2µM, 24h preincubation, number of replicates with >50% inhibition in the female readout): 0 | Average inhibition male (%) [2, 3]: -8.5% | % inhibition male (individual replicates) R1 [2, 4]: 15.3% | % inhibition male (individual replicates) R3 [2, 7]: 4.6% | % inhibition male (individual replicates) R4 [2, 6]: -63.1% | HitlevelM ([2]; 2µM, 24h preincubation, number of replicates with >50% inhibition in the male readout): 0

CC1(C)N=C(N)N=C(N)N1c1cccc(Cl)c1.Cl [TCMDC-123960]
% inhibition female (individual replicates) R1 [1, 8]: 5.3% | % inhibition female (individual replicates) R3 [1, 9]: -21.5% | % inhibition female (individual replicates) R4 [1, 10]: 5.4% | Average inhibition female (%) [1, 11]: -0.8% | % inhibition male (individual replicates) R1 [2, 8]: 4.7% | % inhibition male (individual replicates) R3 [2, 12]: -1.4% | % inhibition male (individual replicates) R4 [2, 10]: -9.8% | Average inhibition male (%) [2, 11]: 3.0%

Br.C[C@@H](COc1ccc(-c2ccccc2)cc1)CON1C(N)=NC(N)=NC1(C)C [TCMDC-124029]
Average inhibition female (%) [1, 3]: 5.2% | % inhibition female (individual replicates) R1 [1, 4]: -6.6% | % inhibition female (individual replicates) R3 [1, 5]: 32.8% | % inhibition female (individual replicates) R4 [1, 6]: -1.3% | HitlevelF ([1]; 2µM, 24h preincubation, hits selected on >50% inhibition in the female readout across replicates): 0 | Average inhibition male (%) [2, 3]: 12.1% | % inhibition male (individual replicates) R1 [2, 4]: 13.7% | % inhibition male (individual replicates) R3 [2, 7]: -5.2% | % inhibition male (individual replicates) R4 [2, 6]: 7.3% | HitlevelM ([2]; 2µM, 24h preincubation, hits selected on >50% inhibition in the male readout across replicates): 0 | Activity ([2]; PfDGFA at 2µM, 24h preincubation, hit = >50% inhibition in male or female readout in at least 3 replicates, 0 = no class assigned): 0

Br.CC(C)(C)c1ccc(Cn2c(=N)n(CC(=O)c3ccc(-c4ccccc4)cc3)c3ccccc32)cc1 [TCMDC-124030]
% inhibition female (individual replicates) R1 [1, 8]: -3.8% | % inhibition female (individual replicates) R3 [1, 9]: -20.2% | % inhibition female (individual replicates) R4 [1, 10]: -0.7% | Average inhibition female (%) [1, 11]: -8.6% | % inhibition male (individual replicates) R1 [2, 8]: -15.4% | % inhibition male (individual replicates) R3 [2, 12]: -16.6% | % inhibition male (individual replicates) R4 [2, 10]: -3.3% | Average inhibition male (%) [2, 11]: -8.2%

O=C(Nc1ccc([N+](=O)[O-])cc1)c1nn(-c2ccccc2)cc1/N=C/c1cccc(O)c1 [TCMDC-124108]
% inhibition female (individual replicates) R1 [1, 8]: 7.8% | % inhibition female (individual replicates) R3 [1, 9]: -29.5% | % inhibition female (individual replicates) R4 [1, 10]: -3.2% | Average inhibition female (%) [1, 11]: -2.4% | % inhibition male (individual replicates) R1 [2, 8]: -5.9% | % inhibition male (individual replicates) R3 [2, 12]: -27.6% | % inhibition male (individual replicates) R4 [2, 10]: -9.8% | Average inhibition male (%) [2, 11]: -10.2%

c1ccc2[nH]c(CN(Cc3nc4ccccc4[nH]3)Cc3nc4ccccc4[nH]3)nc2c1 [TCMDC-124132]
Selectivity ratio F ([1]; HepG2 Tox50 versus female IC50): 10.00 | inhibition at 2 µM ([1]; Plasmodium falciparum, PfDGFA at 2µM, 24h preincubation with gametocytes, average of replicates, read-out: Average inhibition female (%)): 5% | inhibition at 2 µM ([1]; Plasmodium falciparum, PfDGFA at 2µM, 24h preincubation with gametocytes, replicate R1, read-out: % inhibition female (individual replicates) R1): 1.1% | inhibition at 2 µM ([1]; Plasmodium falciparum, PfDGFA at 2µM, 24h preincubation with gametocytes, replicate R2, read-out: % inhibition female (individual replicates) R2): -7.6% | inhibition at 2 µM ([1]; Plasmodium falciparum, PfDGFA at 2µM, 24h preincubation with gametocytes, replicate R3, read-out: % inhibition female (individual replicates) R3): 23.9% | inhibition at 2 µM ([1]; Plasmodium falciparum, PfDGFA at 2µM, 24h preincubation with gametocytes, replicate R4, read-out: % inhibition female (individual replicates) R4): 2.5% | IC50 ([1]; Plasmodium falciparum): > 10000 nM | HitlevelF [1, 13]: 0 | Selectivity Ratio M ([2]; HepG2 Tox50 versus male IC50): 14.81 | inhibition at 2 µM ([2]; Plasmodium falciparum, PfDGFA at 2µM, 24h preincubation with gametocytes, average of replicates, read-out: Average inhibition male (%)): 78.3% | inhibition at 2 µM ([2]; Plasmodium falciparum, PfDGFA at 2µM, 24h preincubation with gametocytes, replicate R1, read-out: % inhibition male (individual replicates) R1): 68.8% | inhibition at 2 µM ([2]; Plasmodium falciparum, PfDGFA at 2µM, 24h preincubation with gametocytes, replicate R2, read-out: % inhibition male (individual replicates) R2): 80.9% | inhibition at 2 µM ([2]; Plasmodium falciparum, PfDGFA at 2µM, 24h preincubation with gametocytes, replicate R4, read-out: % inhibition male (individual replicates) R4): 85.2% | IC50 ([2]; Plasmodium falciparum): 6750 nM | HitlevelM [2, 14]: 3

COc1ccc(N2C(N)=NC(N)=NC2(C)C)cc1.Cl [TCMDC-124269]
% inhibition female (individual replicates) R1 [1, 8]: 13.5% | % inhibition female (individual replicates) R3 [1, 9]: -15.3% | % inhibition female (individual replicates) R4 [1, 10]: 10.3% | Average inhibition female (%) [1, 11]: 1.7% | % inhibition male (individual replicates) R1 [2, 8]: 22.5% | % inhibition male (individual replicates) R3 [2, 12]: 4.0% | % inhibition male (individual replicates) R4 [2, 10]: -9.1% | Average inhibition male (%) [2, 11]: 11.6%

CC(=NNC(=S)NCCc1ccccc1)c1ccccn1 [TCMDC-124270]
Average inhibition female (%) [1, 15]: 36.2% | % inhibition female (individual replicates) R1 [1, 16]: 25.2% | % inhibition female (individual replicates) R3 ([1]; PfDGFA at 2µM, 24h preincubation with gametocytes, replicate R3): 20.9% | % inhibition female (individual replicates) R4 [1, 17]: 55.8% | IC50 [1]: 530 nM | HitlevelF [1, 13]: 1 | Average inhibition male (%) [2, 15]: 63.1% | % inhibition male (individual replicates) R1 [2, 16]: 70.1% | % inhibition male (individual replicates) R3 ([2]; PfDGFA at 2µM, 24h preincubation with gametocytes): 69.5% | % inhibition male (individual replicates) R4 [2, 17]: 18.9% | IC50 [2]: 640 nM | HitlevelM [2, 14]: 3

CC(C)(c1ccccc1)c1ccc(O)c(CN2CCOCC2)c1 [TCMDC-124276]
% inhibition female (individual replicates) R1 [1, 8]: 0.5% | % inhibition female (individual replicates) R3 [1, 9]: 8.1% | % inhibition female (individual replicates) R4 [1, 10]: -2.3% | Average inhibition female (%) [1, 11]: -2.0% | % inhibition male (individual replicates) R1 [2, 8]: 1.1% | % inhibition male (individual replicates) R4 [2, 10]: -1.8% | Average inhibition male (%) [2, 11]: 10.2%

CC(=NNC(=S)Nc1ccccc1Cl)c1ccccn1 [TCMDC-124278]
Average inhibition female (%) [1, 18]: 61.5% | % inhibition female (individual replicates) R1 [1, 19]: 40.0% | % inhibition female (individual replicates) R3 ([1]; 2µM, 24h preincubation with gametocytes, replicate R3): 55.6% | % inhibition female (individual replicates) R4 [1, 20]: 74.7% | IC50 [1]: 300 nM | Average inhibition male (%) [2, 18]: 101.3% | % inhibition male (individual replicates) R1 [2, 19]: 101.8% | % inhibition male (individual replicates) R3 ([2]; 2µM, 24h preincubation with gametocytes): 99.8% | % inhibition male (individual replicates) R4 [2, 20]: 103.6% | IC50 [2]: 110 nM
